In PubChem BioAssay (NCI):
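Following 48 hours of exposure in 96-well plates, responses at five concentrations were used to interpolate endpoints linearly. Here, GI50 denotes the concentration required for 50% inhibition of growth. TGI marks complete inhibition of growth.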

Tests used:
Assay in all cases: DTP human tumour cell line panel, 48 h
K-562 leukemia = system: K-562 leukemia
NCI-H226 lung = system: NCI-H226 lung
OVCAR-8 ovarian = system: OVCAR-8 ovarian
NCI-H522 lung = system: NCI-H522 lung
SW-620 colon = system: SW-620 colon
MCF7 breast = system: MCF7 breast
SK-MEL-5 melanoma = system: SK-MEL-5 melanoma
OVCAR-3 ovarian = system: OVCAR-3 ovarian
IGROV1 ovarian = system: IGROV1 ovarian
SNB-19 CNS = system: SNB-19 CNS

| Structure (SMILES) | TGI (K-562 leukemia) [µM] | TGI (NCI-H226 lung) [µM] | TGI (OVCAR-8 ovarian) [µM] | TGI (NCI-H522 lung) [µM] | TGI (SW-620 colon) [µM] | TGI (MCF7 breast) [µM] | TGI (SK-MEL-5 melanoma) [µM] | TGI (OVCAR-3 ovarian) [µM] | TGI (IGROV1 ovarian) [µM] | TGI (SNB-19 CNS) [µM] | GI50 (K-562 leukemia) [µM] | GI50 (MCF7 breast) [µM] | GI50 (NCI-H226 lung) [µM] | GI50 (OVCAR-8 ovarian) [µM] | GI50 (NCI-H522 lung) [µM] | GI50 (SW-620 colon) [µM] | GI50 (OVCAR-3 ovarian) [µM] | GI50 (IGROV1 ovarian) [µM] | GI50 (SNB-19 CNS) [µM] | GI50 (SK-MEL-5 melanoma) [µM] |
| --- | --- | --- | --- | --- | --- | --- | --- | --- | --- | --- | --- | --- | --- | --- | --- | --- | --- | --- | --- | --- |
| COc1ccc(C(=O)NC2=C(Cl)C(=O)c3ccccc3C2=O)cc1 | > 100 | 9.32 | 14.4 | 1.49 | 3.45 | 17.8 | 4.59 | 6.26 | 12.9 | 17.4 |  |  |  |  |  |  |  |  |  |  |
| O=NN1C(c2ccccc2)C2CCCC(C2=O)C1c1ccccc1 (centres undefined) | 55.3 | 71 | > 100 | 46.4 | > 100 | 46.4 | 35.7 | 9.28 | > 92.7 | > 92.5 |  |  |  |  |  |  |  |  |  |  |
| C[C@]12Cc3cnc(-c4ccccc4)nc3C[C@@H]1CC[C@@H]1[C@@H]2CC[C@@]2(C)[C@H]1CC[C@]2(C)O | 29.4 | 58.1 | 40.4 | 31.2 | > 100 | 76.5 | 42.9 | 54.4 | 63.3 | 44.3 |  |  |  |  |  |  |  |  |  |  |
| COC(=O)c1c(C)[nH]c2c1C(=O)C(=O)c1nc(C)c(C)nc1-2 | > 100 | 26.7 | 26.8 | 21.4 | 41.7 | 24.8 | 20 | 23.3 | 36.1 | 27.4 |  |  |  |  |  |  |  |  |  |  |
| O=S(=O)(O)c1cc(S(=O)(=O)O)c2cc(N=Nc3c(O)ccc4ccccc34)ccc2c1 | > 100 | > 100 | > 100 | > 100 | > 100 |  | > 100 | > 100 | > 100 | > 100 |  |  |  |  |  |  |  |  |  |  |
| COc1ccc(NC(=S)NNC(=O)c2nsc3ccccc23)cc1 | > 100 |  | > 100 |  | > 100 |  | > 100 | 52.9 | > 100 | > 100 |  |  |  |  |  |  |  |  |  |  |
| Nc1c(OCC(=O)O)ccc2cc(S(=O)(=O)O)ccc12 | > 100 | > 100 | > 100 | > 100 | > 100 | > 100 | > 100 | > 100 | > 100 | > 100 |  |  |  |  |  |  |  |  |  |  |
| O=C(Nn1c(-c2cccs2)nc2ccc(I)cc2c1=O)c1ccccc1 | > 100 | > 100 | > 100 | 59.5 | > 100 | > 100 | 76.8 | 39.3 | 82.6 | 64.5 | 43.8 | 23.2 |  |  |  |  |  |  |  |  |
| CN1CC(c2ccccc2)C(O)(C2(c3ccccc3)CN(C)CC(c3ccccc3)C2=O)C(c2ccccc2)C1 (centres undefined) | > 100 | > 100 | > 100 | > 100 | > 100 | > 100 | > 100 | > 100 | > 100 | > 100 |  |  |  |  |  |  |  |  |  |  |
| Cc1cn(C2C=CC(COP(=O)(OCc3ccc([N+](=O)[O-])o3)N(C)CCCCCl)O2)c(=O)[nH]c1=O (centres undefined) | 21.6 | 23.6 | 32.4 | 3.97 | 27.1 | 19.6 | 3.26 | 4.8 | 12.7 | 21.3 |  |  |  |  |  |  |  |  |  |  |
| CC[C@H](C)C1=C(OC(C)=O)[N@+]2([O-])Oc3ccc(-c4c(O)c(O)c(-c5ccc(OC(C)=O)cc5)c(OC(C)=O)c4OC(C)=O)cc3O[C@]2([C@@H](C)CC)C(=O)N1O | 29.2 |  | > 50 | 22.2 | 34.5 | > 50 | > 50 | 37.5 | 44.7 | > 50 |  |  |  |  |  |  |  |  |  |  |
| O=C(O)CCO/N=C1/C(c2c(O)[nH]c3ccccc23)=Nc2ccccc21 | > 100 |  | > 100 | > 100 | > 100 | > 100 | 27.3 | 43.9 | > 100 | > 100 |  |  |  |  |  |  |  |  |  |  |
| CC[C@@]1(OC(=O)CN(C)C)C(=O)OCc2c1cc1n(c2=O)Cc2cc3c(N)cccc3nc2-1 | > 100 | 0.161 | 0.488 | 3.36 | 2.57 | > 100 |  | 0.218 | 0.421 | > 100 | 0.0455 | 0.0115 | 0.0233 | 0.0272 | 0.0744 | 0.0181 | 0.0383 | 0.0609 | 0.0252 |  |
| OC(c1ccc(Cl)cc1)(c1ccc(Cl)cc1)c1cncnc1 | 69.8 | 42.2 | 54.8 |  | 55.4 | 47.8 | 27 | 32.2 |  | 48.8 |  |  |  |  |  |  |  |  |  |  |
| Clc1cc2ccccc2c2ccccc12 | > 100 | > 100 | > 100 | > 100 | > 100 | > 100 | > 100 | > 100 | > 100 | > 100 |  |  |  |  |  |  |  |  |  |  |
| O=C(O)C1OC1C(=O)O (centres undefined) | > 100 | > 100 | > 100 | > 100 | > 100 | > 100 | > 100 | > 100 | > 100 | > 100 |  |  |  |  |  |  |  |  |  |  |
| CCc1c2cc(OC)c(OC)cc2cc2c3cc(OC)c(OC)cc3cc[n+]12 (tested in a mixture with another compound) | > 45.6 | 39.2 | > 72.6 | 34.3 | 75.8 | > 91.6 | 48.9 | > 89.8 | > 85.3 | 82.1 |  |  |  |  |  |  |  |  |  |  |
| CO/N=C(/C)c1cccc(Nc2nc3ccc(Cl)cc3c3[nH]c4ccccc4c23)c1 | 34.6 | 27.9 | 23.1 | 13.4 | 21.8 | 26.2 | 16.9 | 18.5 | 29.4 | 35.6 |  |  |  |  |  |  |  |  |  |  |
| COc1cc2c(cc1OC)C1c3ccccc3CCN1CCC2 (centres undefined) | > 100 | > 100 | > 100 |  | > 100 | > 100 | > 100 | > 100 | > 100 | > 100 |  |  |  |  |  |  |  |  |  |  |
| CC(C)=Cc1cc(C)c2c3c(c(O)c(O)c(C)c13)C(C)=CC2=O | > 100 | 50.9 | > 100 | 41.2 | > 100 | 68.7 | 35 | 52.7 | > 100 | > 100 |  |  |  |  |  |  |  |  |  |  |
| CN(C)CCCNc1ccc2nnn3c4ccc(OC(=O)c5ccccc5)cc4c(=O)c1c23 | 4.49 |  | 39.8 | 10.5 | 21.2 | 30 |  | 24.9 | 36.3 | 25.4 |  |  |  |  |  |  |  |  |  |  |
| Clc1ccc(C2CC(c3cccc(Nc4ccncc4)c3)=NN2c2ccc(Cl)cc2)cc1 (centres undefined) |  | 38.3 |  |  | 3.6 |  | 3.15 |  | 3.18 |  |  |  | 12.4 |  |  | 1.8 |  | 1.65 |  | 1.74 |
| c1ccc2c(c1)OCCc1cn[nH]c1-2 | > 100 | 95.5 | > 100 | > 100 | > 100 | > 100 | > 100 | > 100 | > 100 | > 100 |  |  |  |  |  |  |  |  |  |  |
| O=C1C[C@H](COCc2ccccc2)NC(=O)C[C@H](COCc2ccccc2)NC(=O)C[C@H](COCc2ccccc2)N1 | > 100 | > 100 | > 100 | > 100 | > 100 | > 100 | > 100 | > 100 | > 100 | > 100 |  |  |  |  |  |  |  |  |  |  |
| COc1ccc(C(=O)O[C@H]2CC[C@@]3(C)[C@@H]4CC[C@H]5[C@]6(O)C[C@H](O)[C@@]7(O)[C@@H](CN8C[C@@H](C)CC[C@H]8[C@@]7(C)O)[C@]6(O)C[C@@]53OC24O)cc1OC | > 100 | > 100 | > 100 | > 100 | > 100 | > 100 | > 100 | > 100 | > 100 | > 100 |  |  |  |  |  |  |  |  |  |  |
| COc1ccc(/C=C2\C[C@H]3[C@@H]4CC=C5C[C@@H](OC(C)=O)CC[C@]5(C)[C@H]4CC[C@]3(C)\C2=N\O)cc1OC | > 100 | 56.5 | > 100 | > 100 | > 100 | > 100 | 9.83 | > 100 | > 100 | > 100 |  |  |  |  |  |  |  |  |  |  |
| O=C1CCCC/C1=C1/SC(=Nc2ccccc2)C(=Nc2ccccc2)N1c1ccccc1 | > 100 | > 100 | > 100 | > 100 |  | > 100 |  | > 100 | > 100 | > 100 |  |  |  |  |  |  |  |  |  |  |
| O=C(O)C(O)(c1ccc(-c2ccccc2)cc1)c1ccc(-c2ccccc2)cc1 | > 100 | 62.6 | > 100 | 47.5 | > 100 |  | 37.4 | 30.3 | 57.3 | > 100 |  |  |  |  |  |  |  |  |  |  |
